Data reported in the NIST ThermoML archive (doi:10.1021/je7001013).
Numbers after ± are expanded uncertainties.

Assays:
[1] = refractive index (Na D-line) (dimensionless); conditions: 101.33 kPa, Liquid
[2] = refractive index (Na D-line) (dimensionless); xn = mol fraction of the nth substance listed; conditions: 101 kPa, Liquid
[3] = xn = mol fraction of the nth substance listed

CC[S+]([O-])CC [diethyl sulfoxide]
Conditions	surface tension liquid-gas [mN/m]
298.15 K	34.6 ± 1.9
303.15 K	34.1 ± 1.9
308.15 K	33.7 ± 1.9
313.15 K	33.2 ± 1.9
318.15 K	32.7 ± 1.8
323.15 K	32.4 ± 1.8
328.15 K	32 ± 1.8

[1]
Conditions	refractive index
298.15 K	1.468 ± 0.0016
303.15 K	1.466 ± 0.0016
308.15 K	1.464 ± 0.0016

C[S+](C)[O-] [dimethyl sulfoxide]
Conditions	surface tension liquid-gas [mN/m]
298.15 K	41.7 ± 2.2
303.15 K	41 ± 2.1
308.15 K	40.3 ± 2.1
313.15 K	39.7 ± 2.1
318.15 K	39.1 ± 2.1
323.15 K	38.5 ± 2.1
328.15 K	37.9 ± 2

[1]
Conditions	refractive index
298.15 K	1.4765 ± 0.0016
303.15 K	1.474 ± 0.0016
308.15 K	1.472 ± 0.0016

CCCS(=O)CCC [dipropyl sulfoxide] + O
Conditions	refractive index, [2]	surface tension liquid-gas, [3] [mN/m]
298.15 K, x1 = 0.0105	1.344 ± 0.0015	52.3 ± 2.6
298.15 K, x1 = 0.01985	1.3516 ± 0.0015	–
298.15 K, x1 = 0.0199	–	47.4 ± 2.4
298.15 K, x1 = 0.0469	1.374 ± 0.0016	42.2 ± 2.2
298.15 K, x1 = 0.0998	1.4009 ± 0.0016	39.6 ± 2.1
298.15 K, x1 = 0.2019	1.4305 ± 0.0016	37.5 ± 2
298.15 K, x1 = 0.2809	1.4395 ± 0.0015	37.2 ± 2
298.15 K, x1 = 0.3975	1.446 ± 0.0015	35.8 ± 2
298.15 K, x1 = 0.5001	–	35.4 ± 1.9
298.15 K, x1 = 0.5049	1.4502 ± 0.0015	–
298.15 K, x1 = 0.6818	1.455 ± 0.0015	34.3 ± 1.9
298.15 K, x1 = 0.9002	1.458 ± 0.0016	–
303.15 K, x1 = 0.0105	1.343 ± 0.0015	51.1 ± 2.5
303.15 K, x1 = 0.01985	1.351 ± 0.0015	–
303.15 K, x1 = 0.0199	–	46.4 ± 2.3
303.15 K, x1 = 0.0469	1.3725 ± 0.0015	41.5 ± 2.2
303.15 K, x1 = 0.0998	1.399 ± 0.0015	38.9 ± 2.1
303.15 K, x1 = 0.2019	1.4285 ± 0.0016	37 ± 2
303.15 K, x1 = 0.2809	1.4375 ± 0.0016	36.5 ± 2
303.15 K, x1 = 0.3975	1.4455 ± 0.0015	35.2 ± 1.9
303.15 K, x1 = 0.5001	–	34.9 ± 1.9
303.15 K, x1 = 0.5049	1.4495 ± 0.0015	–
303.15 K, x1 = 0.6818	1.454 ± 0.0015	34.2 ± 1.9
303.15 K, x1 = 0.9002	1.4555 ± 0.0016	–
308.15 K, x1 = 0.0105	1.342 ± 0.0015	49.9 ± 2.5
308.15 K, x1 = 0.01985	1.3506 ± 0.0015	–
308.15 K, x1 = 0.0199	–	45.3 ± 2.3
308.15 K, x1 = 0.0469	1.3711 ± 0.0017	40.7 ± 2.1
308.15 K, x1 = 0.0998	1.398 ± 0.002	38.1 ± 2
308.15 K, x1 = 0.2019	1.4245 ± 0.0022	36.5 ± 2
308.15 K, x1 = 0.2809	1.435 ± 0.0017	36 ± 2
308.15 K, x1 = 0.3975	1.4445 ± 0.0016	34.5 ± 1.9
308.15 K, x1 = 0.5001	–	34.3 ± 1.9
308.15 K, x1 = 0.5049	1.4486 ± 0.0016	–
308.15 K, x1 = 0.6818	1.452 ± 0.0016	33.5 ± 1.9
308.15 K, x1 = 0.9002	1.454 ± 0.0015	–
313.15 K, x1 = 0.0105	–	48.8 ± 2.4
313.15 K, x1 = 0.0199	–	44.4 ± 2.3
313.15 K, x1 = 0.0469	–	40 ± 2.1
313.15 K, x1 = 0.0998	–	37.3 ± 2
313.15 K, x1 = 0.2019	–	35.9 ± 2
313.15 K, x1 = 0.2809	–	35 ± 1.9
313.15 K, x1 = 0.3975	–	34.1 ± 1.9
313.15 K, x1 = 0.5001	–	33.8 ± 1.9
313.15 K, x1 = 0.6818	–	32.9 ± 1.8
318.15 K, x1 = 0.0105	–	47.6 ± 2.4
318.15 K, x1 = 0.0199	–	44.3 ± 2.3
318.15 K, x1 = 0.0469	–	39.3 ± 2.1
318.15 K, x1 = 0.0998	–	36.6 ± 2
318.15 K, x1 = 0.2019	–	35 ± 1.9
318.15 K, x1 = 0.2809	–	34.4 ± 1.9
318.15 K, x1 = 0.3975	–	33.4 ± 1.9
318.15 K, x1 = 0.5001	–	33.3 ± 1.9
318.15 K, x1 = 0.6818	–	32.2 ± 1.8
323.15 K, x1 = 0.0105	–	46.6 ± 2.4
323.15 K, x1 = 0.0199	–	43.2 ± 2.2
323.15 K, x1 = 0.0469	–	38.5 ± 2.1
323.15 K, x1 = 0.0998	–	35.7 ± 2
323.15 K, x1 = 0.2019	–	34.4 ± 1.9
323.15 K, x1 = 0.2809	–	33.8 ± 1.9
323.15 K, x1 = 0.3975	–	32.8 ± 1.8
323.15 K, x1 = 0.5001	–	32.7 ± 1.8
323.15 K, x1 = 0.6818	–	31.6 ± 1.8
328.15 K, x1 = 0.0105	–	45.6 ± 2.3
328.15 K, x1 = 0.0199	–	42.2 ± 2.2
328.15 K, x1 = 0.0469	–	37.8 ± 2
328.15 K, x1 = 0.0998	–	35 ± 1.9
328.15 K, x1 = 0.2019	–	33.7 ± 1.9
328.15 K, x1 = 0.2809	–	33.1 ± 1.9
328.15 K, x1 = 0.3975	–	32.2 ± 1.8
328.15 K, x1 = 0.5001	–	32.1 ± 1.8
328.15 K, x1 = 0.6818	–	30.8 ± 1.8

CC(C)S(=O)C(C)C [2,2'-sulfinylbispropane]
Conditions	surface tension liquid-gas [mN/m]
298.15 K	31.8 ± 1.8
303.15 K	31.2 ± 1.8
308.15 K	30.7 ± 1.8
313.15 K	30.3 ± 1.7
318.15 K	29.8 ± 1.7
323.15 K	29.5 ± 1.7
328.15 K	29.1 ± 1.7

[1]
Conditions	refractive index
298.15 K	1.4645 ± 0.0016
303.15 K	1.462 ± 0.0016
308.15 K	1.4595 ± 0.0016

CCCS(=O)CCC [dipropyl sulfoxide]
Conditions	surface tension liquid-gas [mN/m]
298.15 K	32.6 ± 1.8
303.15 K	32 ± 1.8
308.15 K	31.5 ± 1.8
313.15 K	31 ± 1.8
318.15 K	30.5 ± 1.8
323.15 K	29.9 ± 1.7
328.15 K	29.4 ± 1.7

[1]
Conditions	refractive index
298.15 K	1.4595 ± 0.0015
303.15 K	1.458 ± 0.0016
308.15 K	1.456 ± 0.0016
